# Read-outs that look alike come from different tables or passages of the source.
# What was measured:
# RSV = assay: Anti-RSV activity in RSV-infected A549 cells (MTT and SRB); type: cell-based, RSV A strain (line A2); settings: for Therapeutic index (TI) = IC50(A549)/EC50(A549 + RSV): IC50 in A549; for Therapeutic index (TI) = IC50(B16F10)/EC50(A549 + RSV): IC50 in B16F10; for Therapeutic index (TI) = IC50(HEP2)/EC50(A549 + RSV): IC50 in HEP2; for Therapeutic index (TI) = IC50(VERO)/EC50(A549 + RSV): IC50 in VERO
# A549 cells = assay: cells; type: cell-based; settings: for IC50: Homo sapiens, read-out: IC50 ± SD, concentration toxic to 50% of non-infected A549 cells
# HIV protease = tested on: HIV protease; set-up: method as in PMID 10071849; settings: read-out: IC50 HIV protease inhibition; cited from earlier work
# B16F10 cells = assay: cells; type: cell-based; settings: for IC50: Mus musculus, read-out: IC50 ± SD, concentration toxic to 50% of non-infected B16F10 cells
# VERO cells = assay: cells; type: cell-based; settings: for IC50: Chlorocebus sabaeus, 96 h, read-out: IC50 ± SD, concentration toxic to 50% of non-infected VERO cells
# SARS-CoV [1] = settings: cited from earlier work
# HEP2 cells = assay: cells; type: cell-based; settings: for IC50: Homo sapiens, read-out: IC50 ± SD, concentration toxic to 50% of non-infected HEP2 cells
# RSV protein F gene = type: cell-based; settings: 12.5 µM, RSV-infected A549 cells, 96 h, compared to control
# SARS-CoV [2] = settings: in vitro in Vero cells; read-out: IC50 against SARS-CoV; cited from earlier work
# [3] = human respiratory syncytial virus, A549, A549+RSV, treated 4 hours after viral infection, 96 h, read-out: EC50 ± SD, concentration that inhibits RSV replication by 50%
# [4] = human respiratory syncytial virus, A549, read-out: EC50 ± SD, concentration that inhibits RSV replication by 50%, A549+RSV, treated 4 hours after viral infection, 96 h
# [5] = MTT test, 96 h, non-infected A549 cells
# [6] = B16-F10, MTT test, 96 h, non-infected B16F10 cells
# [7] = MTT test, non-infected VERO cells
# [8] = HEp-2, MTT test, 96 h, non-infected HEP2 cells
Compound,EC50 (RSV; [3]) [µM],Therapeutic index (TI) = IC50(A549)/EC50(A549 + RSV) (RSV),Therapeutic index (TI) = IC50(B16F10)/EC50(A549 + RSV) (RSV),Therapeutic index (TI) = IC50(HEP2)/EC50(A549 + RSV) (RSV),Therapeutic index (TI) = IC50(VERO)/EC50(A549 + RSV) (RSV),EC50 (RSV; [4]) [µM],"IC50 (A549 cells; A549, 96 h) [µM]","IC50 (B16F10 cells; B16-F10, 96 h) [µM]",IC50 (VERO cells; Vero) [µM],"IC50 (HEP2 cells; HEp-2, 96 h) [µM]",other results
"NC(=O)c1ncn([C@@H]2O[C@H](CO)[C@@H](O)[C@H]2O)n1 [RBV, ribavirin, reference compound]",4.9 ± 1.4,,,,,,,,,,
"C=C(C)[C@@H]1CC[C@]2(C(=O)O)CC[C@]3(C)[C@H](CC[C@@H]4[C@@]5(C)CC[C@H](O)C(C)(C)[C@@H]5CC[C@]43C)[C@@H]12 [compound 1, betulinic acid, reference compound]",,3.4,4.3,5.3,2.7,5.3 ± 0.7,17.8 ± 0.6,22.7 ± 0.8,14.2 ± 0.2,28 ± 0.3,IC50 (HIV protease): 8 µM; SI anti-SARS-CoV activity (SARS-CoV [1]): > 10; EC50 (SARS-CoV [1]; read-out: EC50 anti-SARS-CoV activity): 10 µM
"C[C@H]1[C@H](C)CC[C@]2(C(=O)O)CC[C@]3(C)C(=CC[C@@H]4[C@@]5(C)CC[C@H](O)C(C)(C)[C@@H]5CC[C@]43C)[C@H]12 [compound 2, ursolic acid, reference compound]",,1.5,0.9,1.6,0.8,17.3 ± 0.9,26.7 ± 0.9,16.2 ± 0.8,12.9 ± 0.8,26.9 ± 0.4,IC50 (HIV protease): 9 µM
C=C(C)[C@@H]1CC[C@]2(C(=O)O)CC[C@]3(C)[C@H](CC[C@@H]4[C@@]5(C)CC[C@H](OC(C)=O)C(C)(C)[C@@H]5CC[C@]43C)[C@@H]12 [compound 3],,1.2,0.2,0.3,0.3,44.4 ± 0.5,53 ± 0.9,10.2 ± 1.1,13.4 ± 2.1,11.5 ± 1.5,
CC(=O)OC1CCC2(C)C(CCC3(C)C2CC=C2C4C(C)C(C)CCC4(C(=O)O)CCC23C)C1(C)C (stereo not drawn) [compound 4],,9.3,0.9,1.2,0.9,14.3,,,,,"EC50 (RSV; read-out: EC50 ± SD, concentration that inhibits RSV replication by 50%, A549+RSV, treated 4 hours after viral infection, 96 h): 14.3 ± 0.6 µM; IC50 (A549 cells; [5]): 133 ± 1.1 µM; IC50 (B16F10 cells; [6]): 12.4 ± 0.8 µM; IC50 (VERO cells; [7]): 12.6 ± 1.2 µM; IC50 (HEP2 cells; [8]): 17.2 ± 0.9 µM"
C#CCOC(=O)[C@]12CC[C@@H](C(=C)C)[C@@H]1[C@H]1CC[C@@H]3[C@@]4(C)CC[C@H](OC(C)=O)C(C)(C)[C@@H]4CC[C@@]3(C)[C@]1(C)CC2 [compound 5],0.6 ± 0.8,148.0,42.7,30.7,24.2,,88.8 ± 1,25.6 ± 0.5,14.5 ± 0.2,18.4 ± 0.6,
C#CCOC(=O)[C@]12CC[C@@H](C)[C@H](C)[C@H]1C1=CC[C@@H]3[C@@]4(C)CC[C@H](OC(C)=O)C(C)(C)[C@@H]4CC[C@@]3(C)[C@]1(C)CC2 [compound 6],36.2 ± 0.9,1.9,0.8,0.6,0.7,,,,,,IC50 (A549 cells; [5]): 67.2 ± 0.5 µM; IC50 (B16F10 cells; [6]): 29 ± 1.1 µM; IC50 (VERO cells; [7]): 26.1 ± 0.6 µM; IC50 (HEP2 cells; [8]): 20.3 ± 0.4 µM
C=C(C)[C@@H]1CC[C@]2(C(=O)OCc3cn(-c4cccc([N+](=O)[O-])c4)nn3)CC[C@]3(C)[C@H](CC[C@@H]4[C@@]5(C)CC[C@H](OC(C)=O)C(C)(C)[C@@H]5CC[C@]43C)[C@@H]12 [compound 7],0.314,142.3,62.7,79.3,63.0,,42.7 ± 0.6,18.8 ± 0.7,18.9 ± 1.4,23.8 ± 2,"EC50 (RSV; A549+RSV, treated 4 hours after viral infection, 96 h, read-out: EC50 ± SD, concentration that inhibits RSV replication by 50%): 0.3 ± 0.1 µM"
CC(=O)OC1CCC2(C)C(CCC3(C)C2CC=C2C4C(C)C(C)CCC4(C(=O)OCc4cn(-c5cccc([N+](=O)[O-])c5)nn4)CCC23C)C1(C)C (stereo not drawn) [compound 8],,,196.0,398.0,432.0,0.053,59.2 ± 0.9,9.8 ± 0.6,21.6 ± 0.9,19.9 ± 1.2,Cytotoxicity (in words) (A549 cells; non-infected A549 cells): low cytotoxicity; Reduction of RSV protein F gene expression (RSV protein F gene): approximately 65%; Cytotoxicity (in words) (B16F10 cells; non-infected B16F10 cells): low cytotoxicity; Cytotoxicity (in words) (VERO cells; non-infected VERO cells): low cytotoxicity; Cytotoxicity (in words) (HEP2 cells; non-infected HEP2 cells): low cytotoxicity
CC1(C)[C@@H](O[C@H]2O[C@H](C(=O)O)[C@@H](O)[C@H](O)[C@H]2O[C@@H]2O[C@H](C(=O)O)[C@@H](O)[C@H](O)[C@H]2O)CC[C@]2(C)[C@H]3C(=O)C=C4[C@@H]5C[C@@](C)(C(=O)O)CC[C@]5(C)CC[C@@]4(C)[C@]3(C)CC[C@@H]12 [glycyrrhizic acid],,,,,,,,,,,IC50 (SARS-CoV [2]): 365 µM
